Source: patent US20150168416A1, “KITS FOR DETECTING AND MONITORING ENDOCRINE DISRUPTING CHEMICALS (EDCs)” (THE UNITED STATES OF AMERICA, as represented by the …, priority 2012, published 2015)
“Also recorded” adds a separate entry of the source. One block for each compound: values may come before it.

Tests used:
Format in all cases: cell-based
GFP-GR = target: T1, GFP-GR (Rattus norvegicus, UniProt P06536, C656G/D98G); assay: GFP-GR cytoplasm-to-nucleus translocation assay (3617 cells); settings: hormones 100 nM or known concentrations, water samples 100× unless specified, 30 min
T1 construct: expressed in transfected cells; host or cells: 3617 cells (derivative of the 3134 mouse mammary adenocarcinoma line), tetracycline-repressible promoter
Experimental: (§1) Prior to imaging, cells were grown overnight on 22-mm^2 coverslips in DMEM medium containing 10% charcoal stripped serum (Hyclone, Logan, Utah) without tetracycline (to allow the expression of the GFP-GR or GFP-AR, respectively) at a density of 2×10^5 per 6-well plate. For the automated experiments conducted in 96 or 384 well plates, cell density was 10, 000 or 2,500 cells per well, respectively. Cells were treated with vehicle control, hormones (100 nM) or water samples for 30 min at 37° C. at a final concentration of 100×for water samples (unless otherwise specified). Additional negative controls contained samples that tested the activity of the POCIS membranes themselves.
(§2) Upon treatment, cells were fixed with 4% paraformaldehyde in PBS for 15 minutes and washed three times with PBS. Cells on the 22-mm^2 coverslips were mounted in […]® mounting media with DAPI (Vector Laboratories, Inc.) and examined on a Leica DMRA microscope with Leica 100× 1.3-N.A. oil immersion objective. Images were acquired in green (GFP-GR and GFP-AR) and UV (DAPI) channel with SenSys (Photometrics) camera with KAF1400 chip configured to collect 0.067-μm-diameter pixels. For the automated experiments conducted in 96 or 384 well plates, cells were stained with DRAQ5 (BioStatus Limited) at a dilution of 1:5000 for 15 minutes and after three final washes with PBS were imaged either immediately on the Perkin Elmer Opera Image Screening System or kept in PBS at 4° C. for later imaging.
(§3) A Perkin Elmer Opera Image Screening System was used for fully automated collection of fluorescence images of cells. This system employed a 40×water immersion objective lens, laser illuminated Nipkow disk, and cooled CCD cameras to digitally capture high resolution confocal fluorescence micrographs (300 nm pixel size with 2×2 camera pixel binning). […] The algorithm also measured the mean GFP-GR or GFP-AR intensity in both compartments, and translocation was calculated as a ratio of these intensities. […]

GFP-PR-B (eGFP-hPRB) = target: T2, GFP-PR-B (eGFP-hPRB) (Homo sapiens, UniProt P06401); assay: GFP-PR-B translocation in clonal cell lines; settings: clones 8122, 8124, 8127, 8130 (four of five tested)
T2 construct: Five mammalian clonal lines expressing the same traceable fusion protein, GFP-PR-B (eGFP-hPRB); expressed in transfected cells
Source text: Five mammalian clonal lines expressing the same traceable fusion protein, GFP-PR-B (eGFP-hPRB; SEQ ID NO: 14) were contacted with the indicated levels of progesterone, then assayed essentially as in Example 1 for translocation of the fusion protein into the nucleus from the cytoplasm.

pRevTRE-GFP-mAhR = target: T3, pRevTRE-GFP-mAhR (Mus musculus, UniProt P30561); assay: pRevTRE-GFP-mAhR translocation in mammalian cells
T3 construct: expressed in transfected cells
Source text: (§4) Using molecular cloning methods essentially similar to those employed in Example 1, the following additional traceable fusion proteins have been constructed: an aryl hydrocarbon (e.g., dioxin) sensitive fusion protein, pRevTRE-GFP-mAhR (SEQ ID NOs: 9/10); a mineralocorticoid (e.g., aldosterone) sensitive fusion protein, eGFP-ratMR (SEQ ID NOs: 11/12); and a progestin-sensitive fusion protein, eGFP-hPRB (SEQ ID NOs: 13/14).

eGFP-ratMR = target: T4, eGFP-ratMR (Rattus norvegicus, UniProt P22199, A771G/D487G); assay: eGFP-ratMR translocation in mammalian cells
T4 construct: expressed in transfected cells
Source text: as §4

GFP-AR = target: T5, GFP-AR (Homo sapiens, UniProt P10275); assay: GFP-AR cytoplasm-to-nucleus translocation assay (3108 cells); settings: hormones 100 nM or known concentrations, water samples 100× unless specified, 30 min
T5 construct: expressed in transfected cells; host or cells: 3108 cells (derivative of the 3134 mouse mammary adenocarcinoma line), tetracycline-repressible promoter
Experimental: as §1, §2, §3

Structure (SMILES): C[C@]12C[C@H](O)[C@H]3[C@@H](CCC4=CC(=O)CC[C@@]43C)[C@@H]1CC[C@@H]2C(=O)CO [corticosterone]
GFP-GR nuclear translocation (GFP-GR): translocates to the nucleus in a concentration-dependent manner; also recorded: GFP-GR translocation

Structure (SMILES): CCNc1nc(Cl)nc(NC(C)C)n1 [atrazine]
GFP-GR nuclear translocation (GFP-GR): did not induce GFP-GR translocation

Structure (SMILES): CC(=O)[C@H]1CC[C@H]2[C@@H]3CCC4=CC(=O)CC[C@]4(C)[C@H]3CC[C@]12C [progesterone]
GFP-PR-B translocation (GFP-PR-B (eGFP-hPRB)): exhibited the expected translocation; also recorded: positive for translocation

pRevTRE-GFP-mAhR translocation (pRevTRE-GFP-mAhR): exhibited the expected translocation
Structure (SMILES): C1=COC=CO1 [dioxin]

eGFP-ratMR translocation (eGFP-ratMR): exhibited the expected translocation
Structure (SMILES): C[C@]12CCC(=O)C=C1CC[C@@H]1[C@@H]2[C@@H](O)C[C@]2(C=O)[C@@H](C(=O)CO)CC[C@@H]12 [aldosterone]

Structure (SMILES): C[C@@]12CCC[C@H]1[C@@H]1CC(=O)C3=CC(=O)CC[C@]3(C)[C@H]1CC2 [Androst-4-en-3,6-dione]
GFP-AR nuclear translocation (GFP-AR): induced GFP-tagged androgen receptor (GFP-AR) translocation | GFP-AR nuclear translocation (GFP-AR; listed as androst-4-en-3,6-dione): translocated to the nucleus in concentration-dependent manner; also recorded: induces concentration-dependent translocation | GFP-AR nuclear translocation (GFP-AR; listed as androst-4-ene-3,6-dione): GFP-AR nuclear translocation | GFP-GR nuclear translocation (GFP-GR): did not induce GFP-GR translocation
